Data from ChEMBL document CHEMBL1150451, “Synthetic studies on the furan ring of wortmannin” (Bioorg Med Chem Lett, 1995).

Experiment: Inhibition of Phosphatidylinositol 3-kinase

Structure (SMILES)	IC50
CC/N=C/C1=C(O)O[C@H](COC)[C@@]2(C)C1=C(O)C(=O)C1=C2[C@H](OC(C)=O)C[C@]2(C)C(=O)CC[C@@H]12	> 0.5 µM
COC[C@H]1OC(=O)C2=CCOC3=C2[C@@]1(C)C1=C(C3=O)[C@@H]2CCC(=O)[C@@]2(C)C[C@H]1OC(C)=O	0.271 µM
COC[C@H]1OC(O)=C(C=N)C2=C(O)C(=O)C3=C([C@H](OC(C)=O)C[C@]4(C)C(=O)CC[C@@H]34)[C@]21C	> 0.5 µM
CCC/N=C\C1=C(O)O[C@H](COC)[C@@]2(C)C1=C(O)C(=O)C1=C2[C@H](OC(C)=O)C[C@]2(C)C(=O)CC[C@@H]12	> 0.5 µM
COC[C@H]1OC(=O)C(=C(C)C)C2=C(O)C(=O)C3=C([C@H](OC(C)=O)C[C@]4(C)C(=O)CC[C@@H]34)[C@]21C	> 0.5 µM
C/N=C/C1=C(O)O[C@H](COC)[C@@]2(C)C1=C(O)C(=O)C1=C2[C@H](OC(C)=O)C[C@]2(C)C(=O)CC[C@@H]12	> 0.5 µM
CCN(/C=C1/C(=O)O[C@H](COC)[C@@]2(C)C1=C(O)C(=O)C1=C2[C@H](OC(C)=O)C[C@]2(C)C(=O)CC[C@@H]12)CC	0.08 µM
COC[C@H]1OC(=O)C23CC2COC2=C3[C@@]1(C)C1=C(C2=O)[C@@H]2CCC(=O)[C@@]2(C)C[C@H]1OC(C)=O (some centres undefined)	> 0.5 µM
COC[C@H]1OC(=O)c2coc3c2[C@@]1(C)C1=C(C3=O)[C@@H]2CCC(=O)[C@@]2(C)C[C@H]1OC(C)=O [WORTMANNIN]	0.0042 µM
